“Also recorded” adds a separate entry of the source.

One assay has as its target T1, PPARγ (Homo sapiens, UniProt P37231).
T1 sequence (P37231 195-477 isoform P37231-2 limits assumed): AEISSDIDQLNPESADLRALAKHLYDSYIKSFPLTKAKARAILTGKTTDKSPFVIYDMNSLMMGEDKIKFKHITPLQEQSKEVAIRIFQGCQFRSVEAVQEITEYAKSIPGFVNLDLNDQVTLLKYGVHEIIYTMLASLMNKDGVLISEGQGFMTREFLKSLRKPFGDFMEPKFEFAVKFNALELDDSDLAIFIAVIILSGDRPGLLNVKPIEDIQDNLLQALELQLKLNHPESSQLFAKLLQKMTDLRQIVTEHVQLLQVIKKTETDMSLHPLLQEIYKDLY
Description: SPR on immobilized PPARγ. The assay is classed as binding. The following applies: SPR, immobilized PPARγ. The method, then:
; SPR analysis was also performed using the immobilized PPARγ LBD to evaluate if this protein portion was involved in the interaction with 1; […]. Conversely, no affinity of the diterpene towards Hsp60 was observed (Fig. 2c).
To assess the potential of 1 to act as a PPARγ modulator, we investigated the structural and functional aspects of its interaction with this nuclear receptor. To define the structural features required by 1 for an efficient interaction with PPARγ, as a first step, we performed SPR analyses using some diterpenes displaying structural relationship with 1 (compounds 2–9, Fig. 1). […]. SPR analyses were carried out on a BIACORE 3000 instrument (GE-Healthcare). PPARα, PPARγ, PPARδ and HSP60 surfaces were prepared on research−grade CM5 sensor chips (GE Healthcare). Proteins (100 μg/ml in 10 mM CH3COONa, pH 5.0) were immobilized using a standard amine−coupling protocol, to obtain densities of 3–5 kRU. Testing compounds were dissolved in 100% DMSO to obtain 4 mM solutions, and then diluted in PBS containing variable amounts of DMSO, achieving a final DMSO concentration of 0.1%. […]. SPR experiments and data elaboration were carried out as reported elsewhere.

The test system of another assay is HT-29 cells. The experiment in a line: HT-29 cell growth (cell counting). The following applies: GW9662 10 μM 6 h, then compound 10 μM for 24 and 48 h.

Description for HT-29 cells: Data are the mean ± SD of three independent experiments performed in duplicate giving similar results. Significance is indicated as *p ≤ 0.05, **p ≤ 0.01 and ***p ≤ 0.001. (b) HT29 cells were seeded in 24-well in order to reach the density of cells/cm^2 in standard conditions (10^5 cells). […] The experiments were performed in triplicate and the data expressed as mean ± SD. Significance is indicated as **p ≤ 0.01 and ***p ≤ 0.001.

As to `C=C1C2CCC3C(CCC4[C@@H](C(=O)O)C[C@@H](O)C[C@]43C)(C2)[C@H]1O` (some centres unmarked) [Compound 4], at PPARγ, the KD result is given as “No binding”.
At PPARγ, `C=C1C2CCC3C(CCC4[C@@H](C(=O)OC)C[C@@H](O)C[C@]43C)(C2)[C@@H]1O` (some centres unmarked) [Compound 3] returned a dissociation constant (Kd) of 4.59 ± 0.206 µM and an off-rate constant (koff) of 0.096 s⁻¹.
On PPARγ, `C=C1C2CCC3C(CCC4[C@@H](C(=O)OC)C[C@@H](O)C[C@]43C)(C2)[C@H]1O` (some centres unmarked) [Compound 2] came in with a Kd of 1.86 ± 0.078 µM and an off-rate (koff) of 0.051 s⁻¹.
Regarding `C=C1C2CCC3C(CCC4[C@@H](C(=O)OC)C[C@@H](OC(C)=O)C[C@]43C)(C2)[C@H]1OC(C)=O` (some centres unmarked) [Compound 6], the KD result at PPARγ was “No binding”.
With `C=C1C(=O)C23CCC4[C@@]5(C)C[C@@H](O)C[C@@]4(OC5=O)[C@@]2(C)CC[C@]1(O)C3` (some centres unmarked) [Compound 9], the KD result at PPARγ is on record as “not detected; also recorded: No binding”.
On the same count and under the same terms, the same measure for `C=C1C(=O)C23C(O)C1CCC2C12COC3(O)C(O)C1C(C)(C)CCC2O` (centres unmarked) [Compound 8]: “not detected; also recorded: No binding”.
Regarding `CN(CCOc1ccc(CC2SC(=O)NC2=O)cc1)c1ccccn1` (centres unmarked) [Rosiglitazone, reference compound], the “cell counts after GW9662 pre-treatment versus compound alone” value in the assay with HT-29 cells is given as “less pronounced effect”.
For `C=C1C2CCC3C(CCC4[C@@H](CO)C[C@@H](O)C[C@]43C)(C2)[C@H]1O` (some centres unmarked) [Compound 5], at PPARγ, the KD result is recorded as “No binding”.
The same measure, in the same setting: with `CC1CC23CC1CCC2[C@]1(C)C[C@H](C)C[C@](C)(C(=O)O)C1CC3=O` (some centres unmarked) [Compound 7] the entry was “No binding”.

These data come from publication PMC5259791 (Scientific Reports, 2017).
